Test results: ChEMBL document CHEMBL5375986, “Discovery of Lead 2-Thiazolylhydrazones with Broad-Spectrum and Potent Antifungal Activity” (J Med Chem, 2023)
≈ marks a conversion by molar mass, not a printed value.

Experiments:
[1] = system: Cryptococcus neoformans; assay: Antifungal activity against Cryptococcus neoformans assessed as inhibition of fungal growth; type: functional
[2] = Antifungal activity against Cryptococcus gattii VGI assessed as inhibition of fungal growth; type: functional
[3] = system: Cryptococcus neoformans; assay: Antifungal activity against Cryptococcus neoformans ATCC 24067 assessed as inhibition of fungal growth incubated for 24 to 48 hrs by CLSI based broth microdilution method; type: functional; conditions: time 24-48 hrs
[4] = Antifungal activity against Cryptococcus gattii ATCC 24065 assessed as inhibition of fungal growth incubated for 24 to 48 hrs by CLSI protocol based broth microdilution method; type: functional, Cryptococcus gattii VGI; conditions: time 24-48 hrs
[5] = system: Candida albicans; assay: Antifungal activity against Candida albicans SC5314 assessed as inhibition of fungal growth incubated for 24 to 48 hrs by CLSI protocol based broth microdilution method; type: functional; conditions: time 24-48 hrs
[6] = system: Nakaseomyces glabratus; assay: Antifungal activity against Candida glabrata ATCC 2001 assessed as inhibition of fungal growth incubated for 24 to 48 hrs by CLSI protocol based broth microdilution method; type: functional; conditions: time 24-48 hrs
[7] = system: Pichia kudriavzevii; assay: Antifungal activity against Candida krusei ATCC 20298 assessed as inhibition of fungal growth incubated for 24 to 48 hrs by CLSI protocol based broth microdilution method; type: functional; conditions: time 24-48 hrs
[8] = system: Candida parapsilosis; assay: Antifungal activity against Candida parapsilosis ATCC 22019 assessed as inhibition of fungal growth incubated for 24 to 48 hrs by CLSI protocol based broth microdilution method; type: functional; conditions: Lodderomyces parapsilosis, time 24-48 hrs
[9] = system: Candida tropicalis; assay: Antifungal activity against Candida tropicalis ATCC 750 assessed as inhibition of fungal growth incubated for 24 to 48 hrs by CLSI protocol based broth microdilution method; type: functional; conditions: time 24-48 hrs
[10] = system: [Candida] auris; assay: Antifungal activity against Candida auris COLO 01 assessed as inhibition of fungal growth incubated for 24 to 48 hrs by CLSI protocol based broth microdilution method; type: functional; conditions: Candidozyma auris, time 24-48 hrs

| Structure (SMILES) | MIC [1] | MIC [2] | MIC [3] | MIC [4] | MIC [5] | MIC [6] | MIC [7] | MIC [8] | MIC [9] | MIC [10] |
| --- | --- | --- | --- | --- | --- | --- | --- | --- | --- | --- |
| C(=N\Nc1nc(-c2ccccc2)cs1)/C1CCCCC1 | 0.9 µM (≈ 0.257 µg/mL) | 0.9 µM (≈ 0.257 µg/mL) | – | – | – | – | – | – | – | – |
| COc1ccc(-c2csc(N/N=C/C3CCCCC3)n2)cc1 | 0.79 µM (≈ 0.249 µg/mL) | 1.58 µM (≈ 0.498 µg/mL) | – | – | – | – | – | – | – | – |
| c1ccc(-c2csc(NN=C3CCCC3)n2)cc1 | 1.94 µM (≈ 0.499 µg/mL) | 1.94 µM (≈ 0.499 µg/mL) | – | – | – | – | – | – | – | – |
| CCOC(=O)/C(C)=N/Nc1nc(-c2ccccc2)cs1 | – | – | > 125 µM | > 125 µM | > 125 µM | > 125 µM | > 125 µM | > 125 µM | > 125 µM | > 125 µM |
| CCOC(=O)c1sc(NN=C2CCOCC2)nc1C | – | – | > 125 µM | > 125 µM | > 125 µM | > 125 µM | > 125 µM | > 125 µM | > 125 µM | > 125 µM |
| C/C(=N\Nc1nc(-c2ccc(C)cc2)cs1)C(=O)O | – | – | – | – | 14.2 µM (≈ 3.91 µg/mL) | – | 28.4 µM (≈ 7.82 µg/mL) | – | 114 µM (≈ 31.3 µg/mL) | 14.2 µM (≈ 3.91 µg/mL) |
| CCOC(=O)Cc1csc(NN=C(C)C(=O)O)n1 | – | – | > 125 µM | > 125 µM | 57.6 µM (≈ 15.6 µg/mL) | – | 28.8 µM (≈ 7.81 µg/mL) | – | > 125 µM | 57.6 µM (≈ 15.6 µg/mL) |
| CCOC(=O)/C(C)=N/Nc1nc(-c2ccc(OC)cc2)cs1 | – | – | > 125 µM | > 125 µM | > 125 µM | > 125 µM | > 125 µM | > 125 µM | > 125 µM | > 125 µM |
| CCOC(=O)Cc1csc(NN=C(C)C(=O)OCC)n1 | – | – | > 125 µM | > 125 µM | 104 µM (≈ 31.3 µg/mL) | 52.2 µM (≈ 15.6 µg/mL) | 13 µM (≈ 3.89 µg/mL) | 104 µM (≈ 31.3 µg/mL) | 104 µM (≈ 31.3 µg/mL) | 104 µM (≈ 31.3 µg/mL) |
| C/C(CCC(=O)O)=N\Nc1nc(-c2ccc(Cl)cc2)cs1 | – | – | 3 µM (≈ 0.971 µg/mL) | 1.5 µM (≈ 0.486 µg/mL) | 1.5 µM (≈ 0.486 µg/mL) | 96.5 µM (≈ 31.2 µg/mL) | 1.5 µM (≈ 0.486 µg/mL) | 6 µM (≈ 1.94 µg/mL) | 6 µM (≈ 1.94 µg/mL) | 0.7 µM (≈ 0.227 µg/mL) |
| C/C(=N\Nc1nc(-c2ccccc2)cs1)C(=O)O | – | – | – | – | 29.9 µM (≈ 7.81 µg/mL) | – | 29.9 µM (≈ 7.81 µg/mL) | – | 59.8 µM (≈ 15.6 µg/mL) | 29.9 µM (≈ 7.81 µg/mL) |
| C/C(CCC(=O)O)=N\Nc1nc(-c2ccc(Br)cc2)cs1 | – | – | 2.6 µM (≈ 0.957 µg/mL) | 1.3 µM (≈ 0.479 µg/mL) | 0.3 µM (≈ 0.11 µg/mL) | 42.4 µM (≈ 15.6 µg/mL) | 1.3 µM (≈ 0.479 µg/mL) | 1.3 µM (≈ 0.479 µg/mL) | 2.6 µM (≈ 0.957 µg/mL) | 0.3 µM (≈ 0.11 µg/mL) |
| COc1ccc(-c2csc(N/N=C(\C)CCC(=O)O)n2)cc1 | – | – | 0.8 µM (≈ 0.256 µg/mL) | 0.2 µM (≈ 0.0639 µg/mL) | 3 µM (≈ 0.958 µg/mL) | 48.9 µM (≈ 15.6 µg/mL) | 1.5 µM (≈ 0.479 µg/mL) | 3 µM (≈ 0.958 µg/mL) | 6.1 µM (≈ 1.95 µg/mL) | 1.5 µM (≈ 0.479 µg/mL) |
| C/C(=N\Nc1nc(-c2ccc(Br)cc2)cs1)C(=O)O | – | – | 2.4 µM (≈ 0.816 µg/mL) | 2.4 µM (≈ 0.816 µg/mL) | 23 µM (≈ 7.82 µg/mL) | – | 23 µM (≈ 7.82 µg/mL) | – | 91.9 µM (≈ 31.3 µg/mL) | 23 µM (≈ 7.82 µg/mL) |
| CCOC(=O)/C(C)=N/Nc1nc(-c2ccc(Cl)cc2)cs1 | – | – | > 125 µM | > 125 µM | > 125 µM | > 125 µM | > 125 µM | > 125 µM | > 125 µM | > 125 µM |
| C/C(=N\Nc1nc(-c2ccc(C#N)cc2)cs1)C(=O)O | – | – | 22 µM (≈ 6.3 µg/mL) | 175 µM (≈ 50 µg/mL) | 109 µM (≈ 31.3 µg/mL) | – | 109 µM (≈ 31.3 µg/mL) | – | > 125 µM | 13.7 µM (≈ 3.92 µg/mL) |
| COc1ccc(-c2csc(N/N=C(\C)C(=O)O)n2)cc1 | – | – | – | – | 26.8 µM (≈ 7.81 µg/mL) | – | 56.6 µM (≈ 16.5 µg/mL) | – | 56.6 µM (≈ 16.5 µg/mL) | 13.4 µM (≈ 3.9 µg/mL) |
| C/C(=N\Nc1nc(-c2ccc(F)cc2)cs1)C(=O)O | – | – | 11.1 µM (≈ 3.1 µg/mL) | 5.7 µM (≈ 1.59 µg/mL) | 28 µM (≈ 7.82 µg/mL) | – | 28 µM (≈ 7.82 µg/mL) | – | 112 µM (≈ 31.3 µg/mL) | 7 µM (≈ 1.96 µg/mL) |
| C/C(=N\Nc1nc(-c2ccc(Cl)cc2)cs1)C(=O)O | – | – | 5.4 µM (≈ 1.6 µg/mL) | 5.4 µM (≈ 1.6 µg/mL) | 26.4 µM (≈ 7.81 µg/mL) | – | 26.4 µM (≈ 7.81 µg/mL) | – | 106 µM (≈ 31.3 µg/mL) | 6.6 µM (≈ 1.95 µg/mL) |
